Measured values as given in ChEMBL document CHEMBL4000225, “A matrix-focused structure-activity and binding site flexibility study of quinolinol inhibitors of botulinum neurotoxin serotype A” (Bioorg Med Chem Lett, 2017).
The source made the active and inactive calls. No cut-off for these calls is given here.

Key:
[1] = molecular target: Botulinum neurotoxin type A (Clostridium botulinum, UniProt P0DPI0); assay: Inhibition of protease activity of recombinant full length Clostridium botulinum Hall BoNT/A light chain using SNAP-25 peptide (187 to 203 residues) as substrate after 5 mins by HPLC analysis; set-up: species or system Clostridium botulinum A str. Hall
Botulinum neurotoxin type A, sequence (P0DPI0 2-448 limits assumed): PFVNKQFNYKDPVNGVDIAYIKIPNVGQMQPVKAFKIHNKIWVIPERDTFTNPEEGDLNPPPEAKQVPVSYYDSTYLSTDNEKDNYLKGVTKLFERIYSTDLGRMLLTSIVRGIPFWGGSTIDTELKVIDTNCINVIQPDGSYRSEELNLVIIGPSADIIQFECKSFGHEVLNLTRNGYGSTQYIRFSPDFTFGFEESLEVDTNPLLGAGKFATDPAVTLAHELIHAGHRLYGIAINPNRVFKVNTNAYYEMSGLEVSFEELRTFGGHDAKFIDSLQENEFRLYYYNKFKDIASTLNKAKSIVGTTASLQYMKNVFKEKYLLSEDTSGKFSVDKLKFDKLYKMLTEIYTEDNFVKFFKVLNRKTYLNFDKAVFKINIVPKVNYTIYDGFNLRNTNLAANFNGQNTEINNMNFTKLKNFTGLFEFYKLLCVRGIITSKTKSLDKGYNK

[2] = molecular target: Botulinum neurotoxin type A (Clostridium botulinum) (UniProt P0DPI0); assay: (§1) Inhibition of Clostridium botulinum Hall BoNT/A light chain-induced paralysis in CD1 mouse phrenic nerve diaphragm assessed as compound concentration required to cause delay in time to 50% loss of twitch tension evoked by nerve stimulation at 20 uM preincubated with BoNT/A light chain for 15 to 20 mins followed by addition to diaphragm; conditions: Clostridium botulinum A str. Hall
Botulinum neurotoxin type A (Clostridium botulinum), sequence (P0DPI0 2-448 limits assumed): as above

[3] = molecular target: Botulinum neurotoxin type A (Clostridium botulinum) (UniProt P0DPI0); assay: as §1, with “stimulation” for “stimulation at 20 uM”; conditions: Clostridium botulinum A str. Hall

| Structure (SMILES) | IC50 [1] | inhibition [2] | Activity [3] |
| --- | --- | --- | --- |
| Cc1ccc2ccc(C(Nc3ncccn3)c3ccccc3)c(O)c2n1 (stereo not drawn) | 4.6 µM | inactive |  |
| Oc1c(C(Nc2ncccn2)c2ccc(F)cc2)ccc2cccnc12 (stereo not drawn) | 1.7 µM |  | 20 µM |
| Nc1ccccn1 [2-AMINOPYRIDINE] | 1.8 µM |  |  |
| O=Cc1ccc(F)cc1 | 2.3 µM |  |  |
| Cc1ccc2ccc(C(Nc3cccnc3)c3ccccc3F)c(O)c2n1 (stereo not drawn) | 0.7 µM |  | 20 µM |
| Oc1c(C(Nc2ccccn2)c2ccc(F)cc2)ccc2cccnc12 (stereo not drawn) | 4.1 µM |  | 2 µM |
| O=Cc1ccccc1 [BENZALDEHYDE] | 2.9 µM |  |  |
| Oc1c(C(Nc2ncccn2)c2ccccc2)ccc2cccnc12 (stereo not drawn) | 2.7 µM | inactive |  |
| Oc1c(C(Nc2ccccn2)c2ccc(F)cc2)cc(Cl)c2cccnc12 (stereo not drawn) | 0.6 µM |  | 20 µM |
| Oc1c(C(Nc2ccccn2)c2ccc(F)cc2F)ccc2cccnc12 (stereo not drawn) | 3.6 µM |  | 20 µM |
| Oc1c(C(Nc2ncccn2)c2ccc(F)cc2F)ccc2cccnc12 (stereo not drawn) | 12.7 µM | inactive |  |
| Oc1c(C(Nc2ccccn2)c2ccccc2)ccc2cccnc12 (stereo not drawn) |  |  | 10 µM |
| Cc1ccc2ccc(C(Nc3ncccn3)c3ccc(F)cc3)c(O)c2n1 (stereo not drawn) | 4.2 µM |  | 20 µM |
| Cc1ccc2cccc(O)c2n1 [8-HYDROXY QUINALDINE] | 3.9 µM |  |  |
| Oc1ccc(Cl)c2cccnc12 [CLOXYQUIN] | 1.9 µM |  |  |
| Oc1c(C(Nc2cccnc2)c2ccccc2)cc(Cl)c2cccnc12 (stereo not drawn) | 3.5 µM |  | 2 µM |
| Oc1c(C(Nc2cccnc2)c2ccc(F)cc2F)cc(Cl)c2cccnc12 (stereo not drawn) | 0.6 µM |  | 20 µM |
| Oc1c(C(Nc2cccnc2)c2ccccc2)ccc2cccnc12 (stereo not drawn) | 6.2 µM |  | 20 µM |
| Oc1c(C(Nc2ncccn2)c2ccc(F)cc2)cc(Cl)c2cccnc12 (stereo not drawn) | 0.7 µM |  | 20 µM |
| Oc1c(C(Nc2ccccn2)c2ccccc2F)ccc2cccnc12 (stereo not drawn) | 1.2 µM |  | 20 µM |
| Oc1cccc2cccnc12 [OXYQUINOLINE] | 3.9 µM |  |  |
| Oc1c(C(Nc2cccnc2)c2ccccc2F)cc(Cl)c2cccnc12 (stereo not drawn) | 0.7 µM |  | 2 µM |
| O=Cc1ccc(F)cc1F | 4.9 µM |  |  |

| Structure (SMILES) | IC50 [1] | inhibition [2] | Activity [3] |
| --- | --- | --- | --- |
| Cc1ccc2ccc(C(Nc3ccccn3)c3ccc(F)cc3F)c(O)c2n1 (stereo not drawn) | 2.7 µM |  | 20 µM |
| Oc1c(C(Nc2cccnc2)c2ccccc2F)ccc2cccnc12 (stereo not drawn) |  |  | 10 µM |
| Oc1c(C(Nc2ccccn2)c2ccccc2F)cc(Cl)c2cccnc12 (stereo not drawn) | 1.4 µM |  | 20 µM |
| Cc1ccc2ccc(C(Nc3ccccn3)c3ccccc3F)c(O)c2n1 (stereo not drawn) | 1.4 µM |  | 2 µM |
| Cc1ccc2ccc(C(Nc3cccnc3)c3ccccc3)c(O)c2n1 (stereo not drawn) |  |  | 20 µM |
| Cc1ccc2ccc(C(Nc3ncccn3)c3ccccc3F)c(O)c2n1 (stereo not drawn) | 12 µM | inactive |  |
| Oc1c(C(Nc2ccccn2)c2ccccc2)cc(Cl)c2cccnc12 (stereo not drawn) | 1.5 µM |  | 2 µM |
| Cc1ccc2ccc(C(Nc3ccccn3)c3ccccc3)c(O)c2n1 (stereo not drawn) | 0.7 µM |  | 2 µM |
| Cc1ccc2ccc(C(Nc3cccnc3)c3ccc(F)cc3F)c(O)c2n1 (stereo not drawn) | 12.3 µM |  | 2 µM |
| Oc1c(C(Nc2cccnc2)c2ccc(F)cc2)ccc2cccnc12 (stereo not drawn) | 4.6 µM |  | 2 µM |
| Oc1c(C(Nc2ccccn2)c2ccc(F)cc2F)cc(Cl)c2cccnc12 (stereo not drawn) | 0.7 µM |  | 20 µM |
| Nc1cccnc1 | 3.3 µM |  |  |
| Oc1c(C(Nc2ncccn2)c2ccccc2F)cc(Cl)c2cccnc12 (stereo not drawn) | 4 µM |  | 2 µM |
| Oc1c(C(Nc2ncccn2)c2ccccc2)cc(Cl)c2cccnc12 (stereo not drawn) | 4.5 µM |  | 2 µM |
| Cc1ccc2ccc(C(Nc3cccnc3)c3ccc(F)cc3)c(O)c2n1 (stereo not drawn) |  |  | 20 µM |
| O=Cc1ccccc1F | 2.8 µM |  |  |
| Cc1ccc2ccc(C(Nc3ncccn3)c3ccc(F)cc3F)c(O)c2n1 (stereo not drawn) | 4.3 µM | inactive |  |
| Oc1c(C(Nc2ncccn2)c2ccccc2F)ccc2cccnc12 (stereo not drawn) | 1.9 µM | inactive |  |
| Cc1ccc2ccc(C(Nc3ccccn3)c3ccc(F)cc3)c(O)c2n1 (stereo not drawn) | 1.6 µM |  | 20 µM |
| Oc1c(C(Nc2ncccn2)c2ccc(F)cc2F)cc(Cl)c2cccnc12 (stereo not drawn) | 2.2 µM | inactive |  |
| Nc1ncccn1 | 4.6 µM |  |  |
| Oc1c(C(Nc2cccnc2)c2ccc(F)cc2)cc(Cl)c2cccnc12 (stereo not drawn) | 2.3 µM |  | 2 µM |
| Oc1c(C(Nc2cccnc2)c2ccc(F)cc2F)ccc2cccnc12 (stereo not drawn) | 4.4 µM |  | 20 µM |
